In US5442043A, “Peptide conjugate” (Takeda Chemical Industries, Ltd., priority 1992, dated 1995):
Bridge positions count the residues as written; N and C are the ends. Peptide text beside a SMILES is read from it. I, II: the chains in the order shown.

How the values were obtained:
[1] = target: T1, insulin receptor on the capillary endothelial cell (Bos taurus, UniProt F1MV64); test: Competitive inhibition of 125I-insulin binding on bovine brain microvessel endothelial cell monolayers
T1 construct: endogenous in cells; host or cells: primary bovine brain microvessel endothelial cell monolayers
Protocol: In accordance with the description by Ronald T. Borchart et al. of the United States in "Characteristics of the Large Neutral Amino Acid Transport System of Bovine Brain Microvessel Endothelial Cell Monolayers" [Journal of Neurochemistry, Vol. 47, pp. 484-488 (1986)], bovine brain microvessel endothelial cells were separated in a monolayer, whose affinity for the receptor on the endothelial cell was determined.

[2] = compared with natural insulin; cited from earlier work

T1 sequence (F1MV64 28-1382): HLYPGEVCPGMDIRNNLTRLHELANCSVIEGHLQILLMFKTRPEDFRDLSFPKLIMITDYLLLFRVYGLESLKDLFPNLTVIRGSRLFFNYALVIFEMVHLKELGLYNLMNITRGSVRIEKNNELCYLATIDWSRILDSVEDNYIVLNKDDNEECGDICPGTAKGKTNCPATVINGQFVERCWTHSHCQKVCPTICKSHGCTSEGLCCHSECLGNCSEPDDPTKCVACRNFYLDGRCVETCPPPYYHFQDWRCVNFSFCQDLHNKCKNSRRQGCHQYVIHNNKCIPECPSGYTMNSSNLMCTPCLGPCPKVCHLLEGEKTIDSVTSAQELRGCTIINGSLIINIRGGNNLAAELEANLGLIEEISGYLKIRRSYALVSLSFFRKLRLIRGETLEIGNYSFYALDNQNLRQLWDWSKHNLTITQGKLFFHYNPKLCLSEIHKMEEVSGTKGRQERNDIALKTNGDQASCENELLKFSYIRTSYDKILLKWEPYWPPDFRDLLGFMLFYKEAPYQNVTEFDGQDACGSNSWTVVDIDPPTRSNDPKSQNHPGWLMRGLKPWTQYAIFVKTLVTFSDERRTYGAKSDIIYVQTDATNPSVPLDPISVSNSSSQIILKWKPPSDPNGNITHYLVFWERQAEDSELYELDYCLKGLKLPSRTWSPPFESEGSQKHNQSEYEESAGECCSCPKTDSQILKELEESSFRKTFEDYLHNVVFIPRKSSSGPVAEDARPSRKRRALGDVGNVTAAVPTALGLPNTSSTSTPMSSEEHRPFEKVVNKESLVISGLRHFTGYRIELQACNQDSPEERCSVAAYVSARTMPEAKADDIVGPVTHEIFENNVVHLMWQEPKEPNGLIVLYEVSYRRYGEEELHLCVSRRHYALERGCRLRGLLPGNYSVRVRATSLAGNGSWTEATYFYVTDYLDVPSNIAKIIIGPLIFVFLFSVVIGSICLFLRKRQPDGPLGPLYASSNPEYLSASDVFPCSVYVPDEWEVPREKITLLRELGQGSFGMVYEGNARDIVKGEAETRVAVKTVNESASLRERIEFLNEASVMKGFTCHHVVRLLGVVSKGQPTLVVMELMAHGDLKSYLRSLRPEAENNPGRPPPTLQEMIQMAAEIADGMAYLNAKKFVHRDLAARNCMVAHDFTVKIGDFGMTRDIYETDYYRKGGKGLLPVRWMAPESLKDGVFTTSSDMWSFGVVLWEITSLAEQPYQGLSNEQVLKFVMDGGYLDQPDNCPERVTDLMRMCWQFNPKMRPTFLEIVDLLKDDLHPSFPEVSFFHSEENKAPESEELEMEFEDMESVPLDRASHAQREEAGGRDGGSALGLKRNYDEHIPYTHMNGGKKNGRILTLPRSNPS

Row | Compound | 125I-insulin binding ratio (%) after addition of non-labeled compound ([1]; addition concentration 1.0 × 10 μM) [%] | 125I-insulin binding ratio (%) after addition of non-labeled compound ([1]; addition concentration 1.0 × 10^2 μM (first line so printed)) [%] | 125I-insulin binding ratio (%) after addition of non-labeled compound ([1]; addition concentration 1.0 × 10^2 μM (second line so printed)) [%] | Affinity for the insulin receptor on the capillary endothelial cell (in words) ([1]; fragments obtained by solid phase synthesis, Examples 4 and 5) | Affinity for the receptor on the cerebral capillary endothelial cell (in words) ([1]; fragments obtained by trypsin digestion, Examples 1 and 2) | Insulin activity (in words) [2]
1 | CC[C@H](C)[C@H](NC(=O)CN)C(=O)N[C@H](C(=O)N[C@@H](CCC(=O)O)C(=O)N[C@@H](CCC(N)=O)C(=O)N[C@H]1CSSC[C@@H](C(=O)N[C@@H](CO)C(=O)N[C@@H](CC(C)C)C(=O)N[C@@H](Cc2ccc(O)cc2)C(=O)O)NC(=O)[C@H]([C@@H](C)CC)NC(=O)[C@H](CO)NC(=O)[C@H]([C@@H](C)O)NC(=O)[C@H](CSSC[C@H](NC(=O)[C@H](CC(C)C)NC(=O)[C@H](Cc2c[nH]cn2)NC(=O)[C@H](CCC(N)=O)NC(=O)[C@H](CC(N)=O)NC(=O)[C@@H](NC(=O)[C@@H](N)Cc2ccccc2)C(C)C)C(=O)NCC(=O)N[C@@H](CO)C(=O)N[C@@H](Cc2c[nH]cn2)C(=O)N[C@@H](CC(C)C)C(=O)N[C@H](C(=O)N[C@@H](CCC(=O)O)C(=O)N[C@@H](C)C(=O)N[C@@H](CC(C)C)C(=O)N[C@@H](Cc2ccc(O)cc2)C(=O)O)C(C)C)NC1=O)C(C)C [F001] (I: H-FVNQHLCGSHLVEALY-OH / II: H-GIVEQCCTSICSLY-OH; disulfide I:7-II:7, II:6-II:11) | 93.2 ± 0.4 | 61.6 ± 1.2 | 78.5 ± 3.8 | same affinity as insuline frogments obtained in Example 1 and 2 | showed affinity | 
2 | (B25-30) pentapeptide deficient-[Phe^B25 -α-carboxyamide]insulin |  |  |  |  |  | acts as potently as natural insulin
